“Also recorded” adds a separate entry of the source.

Assay [1] has as its target T1, human MT1 receptor (Homo sapiens, UniProt P48039).
T1 construct: expressed in transfected cells
Description: 2-[125I]iodomelatonin competition binding, human MT1 in CHO cells. The note with it: human MT1 stably expressed in CHO cells; calculated from IC50 by Cheng and Prusoff; read-out: MT1 pKi (converted).

Assay [2] concerns the target T2, human MT2 receptor (Homo sapiens, UniProt P49286).
T2 construct: expressed in transfected cells
T2 sequence (P49286 1-362): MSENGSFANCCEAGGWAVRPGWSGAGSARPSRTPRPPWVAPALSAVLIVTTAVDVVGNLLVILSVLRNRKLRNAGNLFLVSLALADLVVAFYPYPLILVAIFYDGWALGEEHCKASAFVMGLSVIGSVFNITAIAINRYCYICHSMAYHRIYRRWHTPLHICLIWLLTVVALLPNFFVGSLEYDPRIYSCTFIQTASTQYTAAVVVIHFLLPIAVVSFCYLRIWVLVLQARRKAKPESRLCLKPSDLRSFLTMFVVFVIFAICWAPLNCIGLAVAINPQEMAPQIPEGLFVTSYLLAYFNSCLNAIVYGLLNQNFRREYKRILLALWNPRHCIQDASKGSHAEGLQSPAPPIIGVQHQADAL
Description: 2-[125I]iodomelatonin competition binding, human MT2 in CHO cells. The settings on record: human MT2 stably expressed in CHO cells; calculated from IC50 by Cheng and Prusoff; read-out: MT2 pKi (converted).

In assay [3] the target is T3, human-cloned MT1 (Homo sapiens, UniProt P48039).
T3 construct: expressed in transfected cells
Briefly: impedance assay in CHO cells expressing human-cloned MT1 (functional activity). For MT1 Activity: key: A = ago0nist; PA = partial agonist; ANT = antagonits. In kind it is cell-based.

Assay [4] concerns the target T4, human-cloned MT2 receptors (Homo sapiens, UniProt P49286).
T4 construct: expressed in transfected cells
T4 sequence (P49286 1-362): T2 sequence (P49286 1-362)
Description: cAMP assay in CHO cells expressing human-cloned MT2 (functional activity). For MT2 Activity: key: A = ago0nist; PA = partial agonist; ANT = antagonits. In kind it is cell-based.

Assay [5] has as its system rats with L5-L6 spinal nerves ligation. Description: L5-L6 spinal nerves ligature model, von Frey paw withdrawal threshold. It counts as in vivo, rat. The settings on record: for AUC of the antiallodynic effect across 8 h: mean±SEM, VEH 36.24±1.8 g. Here is the method:
(§1) Animals: Wistar rats (150-250 g, Charles-River Saint-Constant, Quebec, Canada) were used for the formalin test, hot plate test and L5-L6 spinal nerves ligature model. The animals were housed at constant room temperature and humidity under a 12 h light/dark cycle (lights on at 7 AM). Food and water were available ad libitum.
L5-L6 Spinal Nerves Ligature: Nerve injury results in abnormal pain perception, known as neuropathic pain, which is associated with hyperalgesia (high pain sensibility) and allodynia (pain perception induced by innocuous stimuli) (Campbell and Meyer, 2006). The rat model for neuropathic pain develop by Kim and Chung (Kim and Chung, 1992) was used in which the L5 and L6 spinal nerves were ligated and two weeks later allodynia was measured by paw stimulation with von Frey filaments. Briefly, animals were anesthetized with a mixture of ketamine/xylazine/acepromazine (i.p.). Following surgical preparation and exposure of the dorsal vertebral column, the left L5 and L6 spinal nerves were exposed and tightly ligated with 3.0 chromic catgut suture distal to the dorsal root ganglion. For sham-operated rats, the nerves were exposed but not ligated. The incisions were closed using 3.0 vicryl sutures, and the animals were allowed to recover for 13 days.
On day 14 after surgery, rats were singularly placed in a test chamber (clear plastic, wire mesh-bottomed cage) and allowed to acclimatize for 30-40 min. Von Frey filaments (Stoelting, Wood Dale, Ill., USA) were used to measure the 50% paw withdrawal threshold using the up and down method by (Chaplan et al., 1994). […] Lifting of the paw indicated a positive response and prompted the use of the next weaker filament, whereas absence of paw withdrawal after 5 s indicated a negative response and prompted the next filament of increasing weight. This paradigm continued for four more measurements after the initial change of the behavioral response, or until five consecutive negative (assigned a score of 15 g), or four consecutive positive (assigned a score of 0.25 g) responses. The resulting score were used to calculate the 50% response threshold by using the formula proposed by Dixon et al., 1980.
Allodynia was considered to be present when paw withdrawal thresholds were less than 4 g. (Chaplan et al., 1994). All nerve-ligated rats were verified to be allodynic, responding to a stimulus of less than 4 g. Rats without allodynia were excluded. Following the determination of the basal response, tactile allodynia was assessed at 0.5, 1, 2, 3, 4, 5, 6, 7 and 8 h post-administration for each treatment below described.
[…] […] Another group of rats received only the vehicle (VEH) consisting on a 70% DMSO/saline solution (0.9% NaCl). All treatments were administered in a single subcutaneous injection with a volume of 1 ml. Rats were tested at 0 h (basal withdrawal threshold) and 0.5, 1, 2, 3, 4, 5, 6, 7 and 8 h post-treatment administration.
(§2) Statistical Analysis: Data analysis was done using SigmaPlot 12 (Systat Software, Inc.). Two-way ANOVA for repeated measures was used to analyze data from L5-L6 models using treatments (between) and testing time (within) as factors. One-way ANOVA was used to analyze AUC in the L5-L6 spinal nerves ligation model. One-way ANOVA was used for formalin and hot-plate tests. Post-hoc analyses were performed using Bonferroni t-test comparisons or Student-Newman-Keuls (SNK) test. All data are expressed as mean±Standard Error of the Mean (SEM). P<0.05 was considered significant.

Assay [6] has as its system Wistar rats. Briefly: hot plate test. It counts as in vivo, rat. Here is the method: Animals: Wistar rats (150-250 g, Charles-River Saint-Constant, Quebec, Canada) were used for the formalin test, hot plate test and L5-L6 spinal nerves ligature model. The animals were housed at constant room temperature and humidity under a 12 h light/dark cycle (lights on at 7 AM). Food and water were available ad libitum. Hot plate test: The hot-plate test was performed by using an electronically controlled hot-plate (Ugo Basile, Italy). The initial temperature was 38° C. A near linear increase in temperature (3° C. per min) was obtained by turning the heating adjustment to maximum. The temperature at which the fast hindpaw lick occurred was recorded as the nociceptive end-point. If no hindpaw lick was observed, the test was terminated at 52° C., and this cut-off value was used in the analysis. The plate was wiped with a wet cloth, and a fan located behind the plate allowed rapid cooling so that testing could be conducted every 7.5 min. Statistical Analysis: Data analysis was done using SigmaPlot 12 (Systat Software, Inc.). Two-way ANOVA for repeated measures was used to analyze data from L5-L6 models using treatments (between) and testing time (within) as factors. One-way ANOVA was used to analyze AUC in the L5-L6 spinal nerves ligation model. One-way ANOVA was used for formalin and hot-plate tests. Post-hoc analyses were performed using Bonferroni t-test comparisons or Student-Newman-Keuls (SNK) test. All data are expressed as mean±Standard Error of the Mean (SEM). P<0.05 was considered significant.
(Hot-plate and tail-flick tests time the reaction to a heat stimulus.)

In assay [7] the test system is Wistar rats. Description: formalin test. The note with it: 30 min prior to test. It counts as in vivo, rat. Here is the method:
as §1
Formalin Test: Antinociception was assessed using the formalin test (Dubuisson and Dennis, 1977). Rats were placed in open Plexiglas observation chambers for 60 min to allow them to acclimatize to their surroundings; then they were removed for formalin administration. Rats were gently restrained while the dorsal surface of the right hindpaw was injected with […] of 1% formalin (37% formaldehyde solution further diluted in saline solution) with a 30-gauge needle. The animals were returned to the chambers and nociceptive behavior was observed immediately after formalin injection. Mirrors were placed in each chamber to enable unhindered observation. Licking/biting behavior directed to the formalin injected paw was scored in 5 min intervals considering number and duration of the licking. Cumulative behavior for the total duration of the test as well as the first (0-10 min) and second phase (20-50 min) was then analyzed (Sufka et al., 1998).The initial acute phase (0-10 min) was followed by a relatively short quiescent period, which was then followed by a prolonged tonic response (15-60 min). The first phase is considered to be the result of direct stimulation of nociceptors, whereas inflammation process contributes to phase 2 activity (Hunskaar and Hole, 1987). At the end of the experiment the rats were sacrificed in a CO2 chamber.
as §2

Assay [8] has as its system SNI rats. Briefly: spared nerve injury (SNI) model, dynamic plantar aesthesiometer. In kind it is in vivo, rat. The note with it: 150 mg/kg s.c. Here is the method: Spared nerve injury (SNI) of the sciatic nerve and measurement of allodynia with the dynamic plantar aesthesiometer. SNI was performed according to the method of Decosterd and Woolf (2000). Rats were anaesthetized with sodium pentobarbital (50 mg/kg i.p.). The sciatic nerve was exposed at mid-thigh level […] to the trifurcation and freed of connective tissue; the three peripheral branches (sural, common peroneal, and tibial nerves) of the sciatic nerve were exposed without stretching nerve structures. Both tibial and common peroneal nerves were ligated and transected together. The sham procedure consisted of the same surgery without ligation and transection of the nerves. Fourteen days after SNI, mechanical allodynia was measured using the dynamic plantar aesthesiometer (Ugo Basile, Varese, Italy). Each rat was placed and allowed to move freely in one of the two compartments of the enclosure positioned on a metal grid surface. A mechanical stimulus was delivered to the plantar surface of the rat's hind paw through the metal grid by a steel filament (Von Frey-type), connected to a movable touch-stimulator unit exerting an increasing force of 3 g per second. The force inducing paw withdrawal was recorded to the nearest 0.1 g. Nociceptive responses for mechanical sensitivity (mechanical withdrawal threshold) were measured in grams before and after vehicle or drug administration by an experimenter blind to the treatments. A single trial at each time point was performed on the ipsilateral hind paw to SNI surgery for each rat. Nociceptive responses for mechanical sensitivity were expressed as mean±SEM (g). Groups of 6-7 rats per treatment were used, with each animal being used for one treatment only.
as §2

The mark [9] stands for this setting: 3 mg/kg s.c., listed as Ketoprofen.
The mark [10] stands for this setting: 3 mg/kg s.c., listed as ketoprofen.

T3 sequence (P48039 whole entry): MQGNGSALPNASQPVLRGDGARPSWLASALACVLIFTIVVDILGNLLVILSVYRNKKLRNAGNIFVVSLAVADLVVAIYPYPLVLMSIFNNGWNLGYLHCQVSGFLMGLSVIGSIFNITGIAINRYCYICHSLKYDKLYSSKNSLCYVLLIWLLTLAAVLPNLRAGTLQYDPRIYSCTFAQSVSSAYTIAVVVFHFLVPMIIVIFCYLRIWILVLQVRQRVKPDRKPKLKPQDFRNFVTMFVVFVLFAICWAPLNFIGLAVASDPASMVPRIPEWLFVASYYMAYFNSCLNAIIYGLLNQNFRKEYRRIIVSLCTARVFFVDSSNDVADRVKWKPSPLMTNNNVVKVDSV
T1 sequence (P48039 whole entry): as above

On to `CC(=O)NCCN(c1ccccc1)c1cccc(OCCCCc2ccccc2)c1` [5i, N-{2-[(3-pheny/butoxyphenyl)-phenyl-amino]ethyl}acetamide], for which the Ki is 35.5 nM in assay [1] and 331 nM in assay [2]. Besides, the “activity for the MLT receptor subtype MT1 (in words)” value in assay [3] (CHO cells) is “antagonist activity”. For the same molecule, in assay [3] (intrinsic activity, human MT1 in CHO cells), the “MT1 Activity” value is “ANT”. Further, in assay [4] (CHO cells), the “activity for the MLT receptor subtype MT2 (in words)” value is given as “antagonist activity”. The “MT2 Activity” value in assay [4] (intrinsic activity, human MT2 in CHO cells) is “ANT”.

With `CCC(=O)NC1Cc2ccccc2C(c2ccccc2)C1` (centres unmarked) [4P-PDOT, reference compound], the “effect of pre-treatment with MT2 antagonist on antiallodynic effect of 5p” value in assay [5] (4P-PDOT 10 mg/kg 10 min before 5p 20 mg/kg, 8 h of testing) is recorded as “blocked the effects of 5p”.

Consider `NCC1(CC(=O)O)CCCCC1` [GBP, gabapentin, reference compound], for which the “maximum withdrawal threshold increase” value in assay [5] (100 mg/kg s.c., at 4 h) turned out to be 420 % from basal. The “AUC of the antiallodynic effect across 8 h” value in assay [5] (100 mg/kg s.c.) turned out to be 249.33 ± 22.1 g.

For `CC(=O)Nc1ccc(O)cc1` [ACE, Acetaminophen, reference compound], the “withdrawal temperature vs vehicle” value in assay [6] (200 mg/kg s.c., 1 hour post treatment) is “increased the withdrawal temperature”; in assay [6] (200 mg/kg s.c., 1 hour post treatment, listed as acetaminophen), “increase of withdrawal temperature”; in assay [6] (200 mg/kg s.c., 4 hours post treatment) it was “increased the withdrawal temperature”; in assay [6] (200 mg/kg s.c., 4 hours post treatment, listed as acetaminophen) it was “increase the withdrawal temperature”.

Turning to `COc1ccc2[nH]cc(CCNC(C)=O)c2c1` [MLT, N-acetyl-5-methoxytryptamine, reference compound], the “withdrawal temperature vs vehicle” value is on record as “significant increase of the withdrawal temperature” in assay [6] (150 mg/kg s.c., 30 min post treatment); “increase of withdrawal temperature; also recorded: increased the withdrawal temperature” in assay [6] (150 mg/kg s.c., 1 hour post treatment); “increase the withdrawal temperature” in assay [6] (150 mg/kg s.c., 4 hours post treatment). Further, the “licking time vs vehicle, first phase” value was “decreased the licking time” in assay [7] (150 mg/kg s.c.) and “decrease in the licking time” in assay [7] (150 mg/kg s.c., listed as Melatonin). In addition, the “licking time vs vehicle, second phase” value in assay [7] (150 mg/kg s.c.) was “decrease of the licking time; also recorded: decreased the licking time”. In addition, in assay [7] (150 mg/kg s.c.), the “licking time vs vehicle, total time” value was “decrease in the licking time; also recorded: decreased the licking time”. In addition, the “maximum increase in withdrawal threshold” value in assay [5] (150 mg/kg s.c., at 2 h post-treatment) stood at 335 % from baseline. Further, the “AUC of the antiallodynic effect across 8 h” value in assay [5] (150 mg/kg s.c.) turned out to be 131.75±7.9. In addition, in assay [8], the “effect on mechanical allodynia compared with GBP 100 mg/kg” value is on record as “lower magnitude than that produced by GBP”.

Consider `CC(C(=O)O)c1cccc(C(=O)c2ccccc2)c1` (centres unmarked) [KET, Ketoprofen, reference compound], for which, in assay [7] (3 mg/kg s.c.), the “licking time vs vehicle, first phase” value is reported as “decreased the licking time”; the “licking time vs vehicle, second phase” value is “decreased the licking time”; the “licking time vs vehicle, total time” value is given as “decreased the licking time”. In addition, in assay [7] (setting [9]), the “licking time vs vehicle, first phase” value is “decrease in the licking time”; the “licking time vs vehicle, second phase” value is reported as “decrease of the licking time”; the “licking time vs vehicle, total time” value is “decrease in the licking time”. In assay [7] (setting [10]), the “licking time vs vehicle, first phase” value is “decrease in the licking time”; the “licking time vs vehicle, second phase” value is given as “decrease of the licking time”; the “licking time vs vehicle, total time” value is “decrease in the licking time”.

The record behind these values is patent US20160221932A1, “Methods and Uses of Melatonin Ligands” (priority 2013, published 2016).
